Measurements taken from patent publication US8916541B2, “Synergistic combination of honokiol and modified citrus pectin in cancer therapy” (Better Health Publishing, Inc., priority 2011, dated 2014).

How the values were obtained:
[1] = test system: T-helper/inducer lymphocyte subset (CD3/CD4); assay: FastImmune CD69 T-helper/inducer lymphocyte activation in whole blood cultures; type: cell-based, human; details: 10 ng/ml
Excerpt: (§1) In vitro lymphocyte activation represents a standard approach for evaluating cell-mediated responses to a variety of stimuli including immunostimulatory botanical extracts. The FastImmune assay system monitors the expression of the early activation marker CD69 in whole blood after stimulation with extracts.
(§2) T-lymphocyte subsets can be identified and quantified by using fluorochrome-labeled antibody combinations such as CD4/CD69/CD3 and CD8/CD69/CD3. CD4 antigen is expressed on the T-helper/inducer lymphocyte subset (CD3/CD4). CD8 antigen is expressed on the human suppressor/cytotoxic T-lymphocyte subset (CD3/CD8). Once activated both CD4 and CD8 positive T cells express CD69.
(§3) Blood samples were collected from healthy volunteers and 250 μl blood sample were incubated in 48-well plates with increasing concentrations of compound along with appropriate positive controls (recommended by Becton Dickinson Biosciences, CA) for each subset. CD2/CD2R and Phorbol ester (PMA) were used as controls for T-lymphocyte activation studies. […] T2CA, a characterized polysaccharide complex evaluated in these assays was also used as a control. The blood cultures were incubated at 37° C. in a CO2 incubator for 24 h. […] The percentage of activated T-cell subsets, B-cells and NK-cells and the percentage increase over untreated control were calculated and plotted against compound concentrations.

[2] = test system: suppressor/cytotoxic T-lymphocyte subset (CD3/CD8); assay: FastImmune CD69 T-cytotoxic/suppressor lymphocyte activation in whole blood cultures; type: cell-based, human; details: 10 ng/ml
Excerpt: as §1, §2, §3

[3] = test system: liver cancer BEL-7404 cell line cells; assay: MTT cell viability assay
[4] = increase over untreated control

Row | SMILES | T-helper/inducer Lymphocyte Activation, Activation (%) ([1]; 24 h blood culture) | T-helper/inducer Lymphocyte Activation, % Increase [1, 4] [%] | T-cytotoxic/suppressor Lymphocyte Activation, Activation (%) ([2]; 24 h blood culture) | T-cytotoxic/suppressor Lymphocyte Activation, % Increase [2, 4] [%] | cell growth inhibition ([3]; 10 μg/ml of HNK, 72 hour treatment, BEL-7404 cells) [%] | inhibition ([3]; 5 mcg/ml of HNK alone, BEL-7404 cells, FIG. 1) | cytotoxicity on BEL-7404 cells (in words) ([3]; 72 hour treatment, single agents)
1 | CCCCCCCCCCCCCC(=O)O[C@@H]1[C@@H](C)[C@@]2(O)[C@@H](C=C(CO)C[C@]3(O)C(=O)C(C)=C[C@@H]23)[C@@H]2C(C)(C)[C@]12OC(C)=O [PMA, Phorbol ester] | 5.93 | 120.86 | 5.68 | 54.45 | – | – | –
2 | C=CCc1ccc(O)c(-c2ccc(O)c(CC=C)c2)c1 [HNK, honokiol] | – | – | – | – | 68.7 | around 25% | cytotoxicity on BEL-7404 cells in a dose dependent manner
